Entries after “also recorded” stand apart in the source; their conditions may differ. Where two headings read alike, the source gives them in different places.
What was measured:
cyt c/TOCL complexes [1] = molecular target: T1, cyt c/TOCL complexes (Equus caballus, UniProt P00004); assay: Peroxidase activity of cyt c/TOCL complexes, H2O2-induced oxidation of Amplex Red to resorufin; format: biochemical; settings: for inhibition of cyt c peroxidase compared with TPP-ISA: ratio of compound to cyt c of 2.5:1, TOCL:cyt c 25:1; for inhibition of peroxidase activity of cyt c/TOCL complexes (Amplex Red oxidation): cyt c 1 μM, CL/cyt c 25:1, 50 μM Amplex Red, 50 μM H2O2, 20 min
T1 construct: purchased Sigma (St. Louis, Mo.)
Protocol: Conditions: cyt c (1 μM), H2O2 (50 μM), Amplex Red (50 μM). Experiments were performed in 20 mM HEPES buffer (pH 7.4) containing DTPA (100 μM), cyt c was incubated with DOPC/TOCL liposomes (1:1) at a ratio of TOCL:cyt c of 25:1.
(§1) Peroxidase activity of cyt c was assessed by oxidation of Amplex Red, etoposide or TLCL (tetra-linoleoyl-cardiolipin). Measurements of Amplex Red oxidation were performed using fluorescence of its oxidation product resorufin. Cyt c (1 μM) was incubated with tetra-oleoyl-cardiolipin (TOCL) containing liposomes (CL/cyt c ratio 25:1). Then 50 μM Amplex Red and 50 μM H2O2 were added, and the incubation proceeded for an additional 20 min. Fluorescence was detected by employing a “Fusion α” universal microplate analyzer and by using an excitation wavelength of 535 nm and an emission wavelength of 590 nm. EPR spectra of etoposide phenoxyl radicals were recorded at 25° C. in gas permeable Teflon tubings (inner diameter, 0.8 mm; thickness, 0.013; Alpha Wire Corp., Elizabeth, N.J.). Volume of samples was 60 μL. The spectra were recorded under the following conditions: 335.3 mT, center field; 2 mT, sweep width; 0.04 mT, field modulation; 10 mW, microwave power; 0.1 s, time constant; 2 min, time scan. The time course of the etoposide radical EPR signal was obtained by repeated scanning of the field (0.15 mT, sweep width; 335.3 mT, center field) corresponding to a part of the EPR signal. Peroxidase activity of mitochondria was determined by the formation of resorufin from Amplex Red. Isolated mouse liver mitochondria (0.6 mg/ml) were incubated in the presence of 100 μM Amplex Red and 2 mM tert-butyl hydroperoxide (tBOOH). After incubation at room temperature for 20 min, fluorescence of resurufin was measured.
Small unilamellar liposomes were prepared from dioleoylphosphatidylcholine (DOPC) and TOCL (1:1 ratio) or DOPC and TLCL (4:1 ratio) by sonication in HEPES buffer (20 mM with 100 μM diethylene triamine pentaacetic acid (DTPA) (pH 7.4) 3×60 sec, relaxation time 2 min, 4° C.).
(§2) Peroxidase activity of cyt c was assessed by oxidation of Amplex Red, etoposide or TLCL as described above.

cyt c/TOCL complexes [2] = molecular target: T1, cyt c/TOCL complexes; assay: Low-temperature (77 K) EPR of protein-immobilized (tyrosyl) radicals of cyt c/TOCL with H2O2; format: biochemical; settings: cyt c 100 μM, H2O2 500 μM, EPR at 77 K
Protocol: EPR spectra of protein-immobilized (tyrosyl) radicals were recorded after the addition of H2O2 (500 μM) to cyt c (100 μM) incubated with tetra-oleoyl-cardiolipin (TOOL) liposomes at room temperature. After incubation for 20 s, the reaction was stopped by freezing the samples in liquid nitrogen. EPR spectra were obtained on a JEOL-REIX spectrometer with 100 kHz modulation (JEOL, Kyoto, Japan). EPR spectra from frozen samples were recorded at 77 K under the following conditions: center field, 3230 G; sweep width, 100 G; field modulation, 5 G; microwave power, 1 mW; receiver gain, 10^3; time constant, 0.1 s; time scan, 4 min.

cyt c/TOCL complexes [3] = molecular target: T1, cyt c/TOCL complexes; assay: Peroxidase activity of cyt c/TOCL complexes, H2O2-induced oxidation of etoposide (EPR of phenoxyl radicals); format: biochemical; settings: H2O2-driven oxidation of etoposide
Protocol: as §1, §2

mouse liver mitochondria = assay: Peroxidase activity of isolated mouse liver mitochondria (Amplex Red, tBOOH); format: biochemical; settings: 0.6 mg/ml mitochondria, 100 μM Amplex Red, 2 mM tBOOH, 20 min
Protocol: Peroxidase activity of cyt c was assessed by oxidation of Amplex Red, etoposide or TLCL (tetra-linoleoyl-cardiolipin). Measurements of Amplex Red oxidation were performed using fluorescence of its oxidation product resorufin. Cyt c (1 μM) was incubated with tetra-oleoyl-cardiolipin (TOCL) containing liposomes (CL/cyt c ratio 25:1). Then 50 μM Amplex Red and 50 μM H2O2 were added, and the incubation proceeded for an additional 20 min. Fluorescence was detected by employing a “Fusion α” universal microplate analyzer and by using an excitation wavelength of 535 nm and an emission wavelength of 590 nm. EPR spectra of etoposide phenoxyl radicals were recorded at 25° C. in gas permeable Teflon tubings (inner diameter, 0.8 mm; thickness, 0.013; Alpha Wire Corp., Elizabeth, N.J.). Volume of samples was 60 μL. The spectra were recorded under the following conditions: 335.3 mT, center field; 2 mT, sweep width; 0.04 mT, field modulation; 10 mW, microwave power; 0.1 s, time constant; 2 min, time scan. […] Peroxidase activity of mitochondria was determined by the formation of resorufin from Amplex Red. […] After incubation at room temperature for 20 min, fluorescence of resurufin was measured.
Finally, the ability of ISA and IEOA to inhibit peroxidase activity using isolated mouse liver mitochondria was assessed. […]

mouse embryonic cells = assay: Actinomycin D-induced cell death in mouse embryonic cells (Annexin V/PI); format: cell-based; settings: 1 to 100 μM (BSA complexes), 100 ng ml^−1 ActD, 18 h
Protocol: IEOA or ISA were incubated in the presence of fatty acid-free bovine serum albumin (BSA) (Sigma) at a molar ratio of 5:1 at 37° C. for 30 min. Mouse embryonic cells were incubated with IEOA/BSA or ISA/BSA (100 μM) complexes for 30 min before the addition of 100 ng ml^−1 actinomycin D (ActD). After 18-h incubation with ActD, cell viability was analysed by flow cytometry using an Annexin V/PI kit. ActD-induced cell death in ˜34.2% of cells. […] Representative data with 100 μM IEOA/BSA and ISA/BSA complexes are shown. Data are means±s.d., n=3.

cyt c/TOCL complexes [4] = molecular target: T1, cyt c/TOCL complexes; assay: Haem-nitrosylation of cyt c/TOCL by nitroxyl from Angeli's salt, EPR at 77 K; format: biochemical; settings: Angeli's salt 500 μM, 30 min
Protocol: Heme nitrosylation: Cyt c (100 μM) was incubated with a nitroxyl donor, Angeli's salt (500 μM), for 30 min at room temperature. The reaction was stopped by freezing the samples in liquid nitrogen. The EPR spectra of heme-nitrosylated cyt c were measured at 77 K under the following instrumental settings: center field, 3200 G; scan range, 500 G; field modulation, 5 G; microwave power, 10 mW; time constant, 0.1 s; scan time, 4 min; receiver gain, 10^3.

native ferri-cyt c = molecular target: T2, native ferri-cyt c (Equus caballus, UniProt P00004); assay: Liquid-He (20 K) X-band EPR of haem-iron ligation, native cyt c; format: binding; settings: pH 7.4, 20 K, no TOCL
T2 construct: purchased Sigma (St. Louis, Mo.)
Protocol: (§3) Conditions: native cyt c (300 μM), IEOA/cyt c (2:1), TOCL/IEOA/cyt c (20:2:1), 20 mM HEPES buffer, pH 7.4. Samples (200 μl) were placed in 3 mm o.d. suprasil quartz EPR tubes and frozen in liquid nitrogen for subsequent spectroscopic measurements. X-band (9 GHz) EPR spectra were recorded on a Bruker ESP 300 spectrometer equipped with an Oxford Instruments ESR 910 flow cryostat for ultra-low-temperature measurements. Spectra were recorded at 9.8 G modulation amplitude and 200 μW microwave power. The microwave frequency was calibrated by a frequency counter and the magnetic field was calibrated with a gaussmeter. The temperature was calibrated with carbon-glass resistors (CGR-1-1000) from LakeShore. This instrument and the software (SpinCount) to analyse the EPR spectra were provided by Professor Mike Hendrich, Carnegie Mellon University.

cyt c/TOCL complex = molecular target: T3, cyt c/TOCL complex (Equus caballus, UniProt P00004); assay: Liquid-He (20 K) X-band EPR of haem-iron ligation, cyt c/TOCL complex; format: binding
T3 construct: purchased Sigma (St. Louis, Mo.)
Protocol: as §3

[5] = TPP-IOA levels in plasma, small intestine and bone marrow after i.p. injection (LC-MS/MS, SRM); format: in vivo; settings: C57BL/6NTac, mouse, ip, 10 min after i.p. injection, 5 mg/kg body weight
Protocol: TPP-IOA and its hydrolysis products were extracted from plasma, small intestine and bone marrow tissue 10 min after TPP-IOA i.p. injection into animals (5 mg/kg body weight), using a standard Folch procedure for extraction of lipids^37. In one set of runs, intact TPP-IOA was assessed by SRM as described below. In an identical set of duplicate runs, hydrolyzed TPP-IOA (in the form of the TPP moiety, see below) was assessed by a different mass spectrometric method, MRM, as described below.
TPP-IOA (m/z 651) was assessed by SRM in a LCQ-Duo ion trap mass spectrometer (Thermo, Inc., Waltham, Mass.). Chromatography was performed on an Eclipse XDB reverse phase C18 column (4.6 mm×15 cm, Agilent Technologies, Santa Clara, Calif.) using an isocratic solvent system consisting of acetonitrile:water:triethylamine:acetic acid (450:50:2.5:2.5, v/v/v/v) and a flow rate of 0.4 ml/min. The transition measured was 651>303 (TPP-IOA to TPP-propyl moiety—water) within a 0.5 Da window. Instrument conditions were as follows: spray voltage, 4.5 kV, positive mode; sheath gas, 30; capillary temperature, 250° C.; tube lens, 20; capillary voltage, 26. The instrument was tuned for the appropriate parent ion and all parameters were optimized to maximize the transition during the SRM including tuning under appropriate flow conditions.

T1 sequence (P00004 2-105 limits assumed, one chain of several): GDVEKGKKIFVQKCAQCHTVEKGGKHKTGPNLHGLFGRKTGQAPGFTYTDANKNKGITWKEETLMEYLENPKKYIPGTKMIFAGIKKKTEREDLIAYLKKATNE
T2 sequence (P00004 2-105 limits assumed): as the sequence (P00004 2-105 limits assumed, one chain of several) above
T3 sequence (P00004 2-105 limits assumed, one chain of several): as above

Row | SMILES | inhibition of cyt c peroxidase compared with TPP-ISA (cyt c/TOCL complexes [1]) | H2O2-dependent generation of protein-immobilized (tyrosyl) radicals (cyt c/TOCL complexes [2]) | inhibition of peroxidase activity of cyt c/TOCL complexes (etoposide oxidation, EPR) (cyt c/TOCL complexes [3]) | peroxidase activity of isolated mouse liver mitochondria (mouse liver mitochondria) | protection against ActD-induced cell death (mouse embryonic cells) | inhibition of peroxidase activity of cyt c/TOCL complexes (Amplex Red oxidation) (cyt c/TOCL complexes [1]) | EPR signal of haem-nitrosylated cyt c/TOCL (cyt c/TOCL complexes [4]) | also measured
1 | CCCCCCCCCCCCC(CCCCC(=O)OCCC[P+](c1ccccc1)(c1ccccc1)c1ccccc1)n1ccnc1.[Br-] (racemic) [TPP-6-imidazole-stearic acid, (3-((6-(1H-imidazol-1-yl)octadecanoyl)oxy)propyl)triphenylphosphonium bromide] | significantly better inhibitors of cyt c peroxidase than TPP-ISA | – | – | – | – | – | – | –
2 | CCCCCCCCCCC(CCCCCCC(=O)OCCC[P+](c1ccccc1)(c1ccccc1)c1ccccc1)n1ccnc1.[Br-] (racemic) [TPP-8-imidazole-stearic acid, (3-((8-(1H-imidazol-1-yl)octadecanoyl)oxy)propyl)triphenylphosphonium bromide] | significantly better inhibitors of cyt c peroxidase than TPP-ISA | – | – | – | – | – | – | –
3 | CCCCCCC(C/C=C/CCCCCCCC(=O)O)n1ccnc1 (stereo not drawn) [IEOA, (E)-12-(1H-imidazol-1-ium-1-yl)octadec-9-enoic acid] | – | effectively quenched generation of Tyr. radicals | potent inhibitors | suppressed peroxidase activity in a concentration-dependent manner | exerted no protection against apoptosis; also recorded: no detectable protection | potent inhibitors | concentration-dependent decrease of the EPR signal | –
4 | CCCCCCC(C/C=C\CCCCCCCC(=O)O)n1ccnc1 (stereo not drawn) [IOA, 12-(Imidazol-1-yl)-(Z)-9-octadecaenoate] | – | effectively quenched generation of Tyr. radicals | potent inhibitors | – | – | potent inhibitors | – | EPR spectrum (axial haem coordination) of native ferri-cyt c on addition of compound (native ferri-cyt c): no change in the EPR spectrum
5 | CCCCCCC(CCCCCCCCCCC(=O)O)n1ccnc1 (stereo not drawn) [ISA, 12-(1H-imidazol-1-yl)octadecanoic acid] | – | – | potent inhibitors | suppressed peroxidase activity in a concentration-dependent manner | exerted no protection against apoptosis; also recorded: no detectable protection | potent inhibitors | concentration-dependent decrease of the EPR signal | change of haem-iron coordination in cyt c (Met80 substituted by imidazole moiety) (cyt c/TOCL complex): able to change haem-iron coordination in cyt c
6 | CCCCCCC(C/C=C\CCCCCCCC(=O)OCCC[P+](c1ccccc1)(c1ccccc1)c1ccccc1)n1ccnc1.[Br-] (stereo not drawn) [TPP-IOA, 9-(Z)-(3-(12-imidazol-1-yl)octadeca-9-enoyloxy)propyl)triphenylphosphonium bromide] | – | – | – | – | – | – | – | concentration at 10 min ([5]; bone marrow, read-out: TPP-IOA level in bone marrow): 0.2 ng/g; concentration at 10 min ([5]; plasma, read-out: TPP-IOA level in plasma): 54 ng/mL; concentration at 10 min ([5]; small intestine, read-out: TPP-IOA level in small intestine): 1.5 ng/g
